From patent publication US20240116985A1, “STAPLED PEPTIDES AND METHODS THEREOF” (priority 2020, published 2024)
≈ marks a conversion by molar mass, not a printed value. Like-named read-outs stand apart in the source and are kept apart here.

Key:
[1] = target: T1, beta-catenin/TCF4 engagement (Homo sapiens, UniProt P35222); assay: Nano-BRET target engagement assay (B-cat-Halo & TCF4-Luc in HEK293 cells); type: cell-based; conditions: read-out: NanoBRET Abs IC50
T1 construct: expressed in transfected cells; host or cells: HEK293
T1 sequence (P35222 1-781): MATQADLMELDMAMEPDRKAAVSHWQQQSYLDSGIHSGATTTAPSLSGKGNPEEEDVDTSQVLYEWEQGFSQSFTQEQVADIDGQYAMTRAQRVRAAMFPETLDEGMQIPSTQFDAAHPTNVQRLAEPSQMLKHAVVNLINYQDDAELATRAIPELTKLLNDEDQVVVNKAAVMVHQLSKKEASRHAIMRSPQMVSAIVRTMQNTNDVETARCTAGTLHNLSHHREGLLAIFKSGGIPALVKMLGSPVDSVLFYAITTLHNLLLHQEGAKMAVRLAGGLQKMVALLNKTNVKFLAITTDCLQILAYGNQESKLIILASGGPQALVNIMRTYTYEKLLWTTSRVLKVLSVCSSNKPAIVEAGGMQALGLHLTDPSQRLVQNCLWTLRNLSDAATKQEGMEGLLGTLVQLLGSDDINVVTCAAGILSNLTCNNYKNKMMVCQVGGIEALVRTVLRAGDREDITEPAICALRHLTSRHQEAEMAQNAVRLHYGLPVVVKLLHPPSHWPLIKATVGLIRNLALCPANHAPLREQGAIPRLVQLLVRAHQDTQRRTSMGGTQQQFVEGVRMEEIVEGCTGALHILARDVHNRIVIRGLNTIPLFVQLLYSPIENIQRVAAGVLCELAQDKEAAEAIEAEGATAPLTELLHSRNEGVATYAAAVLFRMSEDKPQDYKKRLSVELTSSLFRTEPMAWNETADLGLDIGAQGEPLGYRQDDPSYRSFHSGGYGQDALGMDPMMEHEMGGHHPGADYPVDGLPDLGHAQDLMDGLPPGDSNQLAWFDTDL

[2] = target: T2, full-length beta-Catenin (Uniprot ID P35222) (Homo sapiens, UniProt P35222); assay: Fluorescence polarization IC50 (beta-catenin / 5FAM-TCF4 10-53 competition); type: binding
T2 construct: 10 nM full-length beta-Catenin (Uniprot ID P35222)
T2 sequence (P35222 1-781): T1 sequence (P35222 1-781)

[3] = Solubility in PBS; type: physicochemical
Outline: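 PBS sample ultracentrifuged; supernatant run on HPLC vs. 50 μM peptide in DMSO standard. Solubility = (PBS peak area / DMSO peak area) × 50 uM.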

[4] = CHI Log D procedure; type: physicochemical; conditions: for chromatographic logD: pH 7.4, CHI Log D; for CHI Log D: pH 7.4
[5] = fluorescence polarization, read-out: beta-Catenin FP IC50

In the case of CC(=O)N1CCC[C@]12CC=CCCCC1(CCCC=CCCCOC(=O)N3CC[C@@](C(=O)N[C@@H](Cc4ccsc4)C(=O)N[C@@H](Cc4csc5ccccc45)C(N)=O)(C3)NC(=O)[C@H](CC(N)=O)NC(=O)[C@H](Cc3ccccc3)NC(=O)[C@H](C)NC(=O)[C@H](C)NC(=O)[C@H](CCC(N)=O)NC(=O)[C@H](CC(=O)O)NC1=O)NC(=O)[C@H](CC(C)(C)C)NC(=O)[C@H](CC(=O)O)NC2=O (stereo partly drawn) [I-858, Ac-PL3-Asp-Npg-B5-Asp-Gln-Ala-Ala-Phe-Asn-PyrS2-3Thi-BztA-NH2], the IC50 [1] is reported as > 20000 nM, the IC50 ([2]; read-out: beta-Catenin FP IC50) is reported as 34 nM and the Solubility ([3]; Solubility (uM)) is reported as 18 µM (≈ 32.5 µg/mL). For the same compound, the chromatographic logD [4] was 2.54.

For CC(=O)N1CCC[C@]12CC=CCCCC1(CCCC=CCCCCCC[C@@](C)(C(=O)N[C@@H](Cc3ccccc3Cl)C(=O)N[C@@H](Cc3csc4ccccc34)C(=O)N[C@H](C(N)=O)[C@@H](C)O)NC(=O)[C@H]([C@@H](C)O)NC(=O)[C@H](Cc3ccccc3)NC(=O)[C@H](C)NC(=O)[C@H](C)NC(=O)[C@H](CC(=O)O)NC(=O)[C@H](CC(=O)O)NC1=O)NC(=O)[C@H](CC(C)(C)C)NC(=O)[C@H](CC(=O)O)NC2=O (stereo partly drawn) [I-1090, Ac-PL3-Asp-Npg-B5-Asp-Asp-Ala-Ala-Phe-Thr-S8-2C1F-BztA-Thr-NH2], the IC50 [1] was 6100 nM, the IC50 ([2]; read-out: beta-Catenin FP IC50) was 18 nM and the Solubility ([3]; Solubility (uM)) was 39 µM (≈ 72.7 µg/mL). For the same compound, the chromatographic logD [4] was 2.98.

COc1cccc(C[C@@H]2NC(=O)[C@H](C)NC(=O)[C@H](C)NC(=O)[C@H](CC(=O)O)NC(=O)[C@H](CC(=O)O)NC(=O)C3(CCCC=CCCCOC(=O)N4CC[C@@](C(=O)N[C@@H](Cc5ccccc5Cl)C(=O)N[C@@H](Cc5csc6ccccc56)C(=O)N[C@@H](CCC(N)=O)C(N)=O)(C4)NC(=O)[C@H](CO)NC2=O)CCCC=CC[C@]2(CCCN2C(C)=O)C(=O)N[C@@H](CC(=O)O)C(=O)N[C@@H](CC2CCCCC2)C(=O)N3)c1 (stereo partly drawn) [I-1118, Ac-PL3-Asp-Cha-B5-Asp-Asp-Ala-Ala-3OMeF-Ser-PyrS2-2C1F-BztA-Gln-NH2] gave an IC50 [1] of 29500 nM, an IC50 ([2]; read-out: beta-Catenin FP IC50) of 24 nM and a Solubility ([3]; Solubility (uM)) of 37 µM (≈ 73.1 µg/mL). It also gave a chromatographic logD [4] of 2.34.

Work on CC[C@@H]1NC(=O)[C@H](CC(=O)O)NC(=O)[C@]2(CC=CCCCC3(CCCC=CCCCCCC[C@@](C)(C(=O)N[C@@H](Cc4ccccc4)C(=O)N[C@@H](Cc4csc5ccccc45)C(=O)N[C@@H](CCC(N)=O)C(N)=O)NC(=O)[C@H](CC(N)=O)NC(=O)[C@H](Cc4ccccc4)NC(=O)[C@H](C)NC(=O)[C@H](C)NC(=O)[C@H](CC(=O)O)NC(=O)[C@H](CC(=O)O)NC3=O)NC1=O)CCCN2C(C)=O (stereo partly drawn) [I-573, Ac-PL3-Asp-Abu-B5-Asp-Asp-Ala-Ala-Phe-Asn-S8-Phe-BztA-Gln-NH2] yielded an IC50 ([1]; absolute IC50) of 33300 nM, an IC50 [2, 5] of 36 nM and an IC50 ([2]; read-out: FP EC50) of 36 nM. The “Solubility” value [3] was 49 µM (≈ 89.5 µg/mL) and the “CHI Log D” value [4] was 2.116.

For CC(=O)N1CCC[C@]12CC=CCCCC1(CCCC=CCCCOC(=O)N3CC[C@@](C(=O)N[C@@H](Cc4ccccc4Cl)C(=O)N[C@@H](Cc4csc5ccccc45)C(=O)N[C@@H](CCC(N)=O)C(N)=O)(C3)NC(=O)[C@H](CC(N)=O)NC(=O)[C@H](Cc3ccccc3)NC(=O)[C@H](C)NC(=O)[C@H](C)NC(=O)[C@H](CC(=O)O)NC(=O)[C@H](CC(=O)O)NC1=O)NC(=O)[C@H](Cc1ccccc1)NC(=O)[C@H](CC(=O)O)NC2=O (stereo partly drawn) [I-1041, Ac-PL3-Asp-Phe-B5-Asp-Asp-Ala-Ala-Phe-Asn-PyrS2-2C1F-BztA-Gln-NH2], the IC50 ([1]; absolute IC50) was > 20000 nM, the IC50 ([2]; read-out: beta-Catenin FP IC50) was 8 nM and the “Solubility” value [3] was 50 µM (≈ 98.3 µg/mL). It also gave a chromatographic logD [4] of 2.08.

Compound CC(=O)N1CCC[C@]12CC=CCCCC1(CCCC=CCCCCCC[C@@](C)(C(=O)N[C@@H](Cc3ccccc3)C(=O)N[C@@H](Cc3csc4ccccc34)C(=O)N[C@@H](Cc3c[nH]cn3)C(N)=O)NC(=O)[C@H](CC(N)=O)NC(=O)[C@H](Cc3ccccc3)NC(=O)[C@H](C)NC(=O)[C@H](C)NC(=O)[C@H](CC(=O)O)NC(=O)[C@H](CC(=O)O)NC1=O)NC(=O)[C@H](CC(C)C)NC(=O)[C@H](CC(=O)O)NC2=O (stereo partly drawn) [I-565, Ac-PL3-Asp-Leu-B5-Asp-Asp-Ala-Ala-Phe-Asn-S8-Phe-BztA-His-NH2] has an IC50 ([1]; absolute IC50) of 26000 nM, an IC50 [2, 5] of 13 nM and an IC50 ([2]; read-out: FP EC50) of 13 nM. The “Solubility” value [3] was 26 µM (≈ 48.5 µg/mL) and the “CHI Log D” value [4] was 2.435.
